In brackets after ≈: the same amount, converted by molar mass. Read-outs that look alike come from different tables or passages of the source.
Experiments:
[1] = system: urease; conditions: cited from earlier work
[2] = system: Proteus mirabilis; assay: In vitro antimicrobial activity, CLSI microbroth dilution (bacteria); type: cell-based; conditions: clinical isolate
Protocol: M27-A3 for yeasts). The compounds were diluted, and stock solutions of 20 mg/mL in DMSO were prepared. Mueller-Hinton Broth (HiMedia) and RPMI-1640 (Sigma) were prepared as recommended for antimicrobial susceptibility testing of bacterial and fungal strains, respectively. Two-fold dilutions were made in the range of 1-512 μg/mL for tested compounds. […] All experiments were performed in duplicates.

[3] = system: P. mirabilis; assay: Anti-ureolytic activity, colorimetric urea broth microdilution; type: cell-based, Proteus mirabilis; conditions: read after 24 h, means ± SD of 3 independent experiments; for IC50: Proteus mirabilis, read-out: urease inhibitory activity IC50 (µg/mL) ± SD
Protocol: (§1) The colorimetric microdilution technique using urea broth media (Merck) was used to examine the ureolytic activity of C. neoformans (H99), and clinical isolate of P. mirabilis treated with tested substances (supplemented with glucose; pH = 6 for C. neoformans). Compounds in the concentration range of 1 to 512 μg/mL were exposed to ureolytic microorganisms, and the color of the medium was evaluated visually and spectroscopically at 560 nm after three days for C. neoformans and 24 h for P. mirabilis. The positive control, which included ureolytic bacteria but no drugs, changed color from yellow to dark pink or magenta. This shifts, allowing the determination of the inhibitory activity of compounds against the urease activity of organisms even without a microliter plate reader[45],[46].

[4] = target: Jack bean urease (Canavalia ensiformis, UniProt P07374); assay: Screening of urease inhibitory activities (indophenol method, enzymatic); type: biochemical
Protocol: Urease inhibition effects of the synthesized compounds were determined according to the previously reported procedure[37]–[39]. Briefly, 100 μL of the synthesized compounds at different concentrations was added to 850 μL of urea as substrate and 50 μL urease (3 mg/mL) in phosphate buffer, pH = 7.4). After 30 min, to 100 μL of the incubated solution, 500 μL of solution I (5.0 g phenol and 25.0 mg sodium nitroprusside in 500 mL water) was added, followed by the addition of 500 μL of solution II (2.5 g sodium hydroxide, 4.2 mL sodium hypochlorite, and 5% chlorine in 500 mL water) which was further incubated at 37 °C for 30 min. The absorbance of blue-colored indophenol of each cell is related to the percentage of enzyme inhibition using the following equation at 625 nm. The IC50 values for all synthesized compounds were calculated using GraphPad Prism software (GraphPad Software, Inc., San Diego, CA).

[5] = target: urease (Canavalia ensiformis, UniProt P07374); assay: Kinetic study of urease inhibition (Lineweaver–Burk); type: biochemical, Jack bean
Protocol: The kinetic study for the inhibition of urease by compound 6a was carried out using four different concentrations of inhibitor. Compound 6a was tested at […] concentrations against urease for the kinetic study. The Lineweaver–Burk reciprocal plot was constructed by plotting 1/V against 1/[S] at variable concentrations of the substrate urea (3.12 to 100 mM). The inhibition constant Ki was calculated by the plot of slopes versus the corresponding concentrations of compound 6a.

[6] = system: Cryptococcus neoformans (H99); assay: In vitro antimicrobial activity, CLSI microbroth dilution (yeast); type: cell-based
Protocol: The antimicrobial activities of all derivatives against C. neoformans (H99), and clinical isolate of P. mirabilisas urease positive microorganism, were tested as recommended by the Clinical and Laboratory Standards Institute (CLSI) (M07-A9 for bacteria; M27-A3 for yeasts). The compounds were diluted, and stock solutions of 20 mg/mL in DMSO were prepared. Mueller–Hinton Broth (HiMedia) and RPMI-1640 (Sigma) were prepared as recommended for antimicrobial susceptibility testing of bacterial and fungal strains, respectively. Two-fold dilutions were made in the range of 1–512 μg/mL for tested compounds. The microbroth dilution test was accomplished using a 96-well microtiter plate containing growth control (drug free wellls) and sterility control (only broth media). The antimicrobial susceptibility test was accomplished by adding a cell suspension adjusted to the 0.5 McFarland standard (1–2 × 10^8 CFU/mL for bacterial strains; 1–5 × 10^6 cells/mL for yeast) to different concentrations of tested compounds. […] All experiments were performed in duplicates.

[7] = system: C. neoformans (H99); assay: Anti-ureolytic activity, colorimetric urea broth microdilution; type: cell-based, Cryptococcus neoformans; conditions: read after three days, means ± SD of 3 independent experiments; for IC50: Cryptococcus neoformans, 72 h
Protocol: as §1

[8] = read-out: urease inhibitory activity IC50 (µg/mL) ± SD, C. neoformans
[9] = urease enzymatic assessment, mean ± SD of three independent experiments, read-out: IC50 (µM) ± SD
[10] = C. neoformans, read-out: urease inhibitory activity IC50 (µg/mL) ± SD

Sequence of Jack bean urease (P07374 whole entry, looked up): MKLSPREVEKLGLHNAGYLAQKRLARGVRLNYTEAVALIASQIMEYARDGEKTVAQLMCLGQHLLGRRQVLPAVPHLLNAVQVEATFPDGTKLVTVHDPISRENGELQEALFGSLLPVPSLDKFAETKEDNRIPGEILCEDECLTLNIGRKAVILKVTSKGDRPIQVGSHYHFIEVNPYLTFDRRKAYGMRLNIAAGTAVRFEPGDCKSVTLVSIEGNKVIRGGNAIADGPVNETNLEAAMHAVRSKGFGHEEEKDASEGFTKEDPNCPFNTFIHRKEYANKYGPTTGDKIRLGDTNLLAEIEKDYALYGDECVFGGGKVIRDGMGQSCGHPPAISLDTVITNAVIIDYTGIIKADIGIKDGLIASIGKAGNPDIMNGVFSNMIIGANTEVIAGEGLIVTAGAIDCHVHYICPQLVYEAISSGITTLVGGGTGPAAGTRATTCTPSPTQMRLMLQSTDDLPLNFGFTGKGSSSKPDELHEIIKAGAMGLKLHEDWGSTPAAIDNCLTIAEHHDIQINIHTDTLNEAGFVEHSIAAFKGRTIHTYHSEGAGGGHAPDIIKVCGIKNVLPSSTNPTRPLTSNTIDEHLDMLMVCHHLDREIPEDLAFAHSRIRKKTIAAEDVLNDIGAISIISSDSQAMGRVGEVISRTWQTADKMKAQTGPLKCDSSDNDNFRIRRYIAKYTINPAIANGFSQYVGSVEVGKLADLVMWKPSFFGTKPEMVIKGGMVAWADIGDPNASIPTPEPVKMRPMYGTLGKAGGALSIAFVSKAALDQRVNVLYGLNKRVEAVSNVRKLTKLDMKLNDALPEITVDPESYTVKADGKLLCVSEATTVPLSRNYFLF
Sequence of urease (Canavalia ensiformis, UniProt P07374) (P07374 whole entry, looked up): as above

| Structure (SMILES) | MIC ([2]; read-out: MIC) | IC50 [3] | IC50 [4] | MIC ([6]; read-out: MIC) | melting point | IC50 [7, 10] | further results |
| --- | --- | --- | --- | --- | --- | --- | --- |
| O=C(NC1CCCCC1)C(c1cccs1)N(C(=O)CSc1nnc(-c2ccc([N+](=O)[O-])o2)s1)c1ccccc1 (centres unmarked) [F] |  |  |  |  |  |  | improvement in the inhibitory potency against urease compared to thiourea [1]: tenfold; mode of inhibition ([1]; urease): non-competitive |
| c1ccc(CSc2nn3c(-c4ccccc4)nnc3s2)cc1 [Compound 6a, 6-(benzylthio)-3-phenyl-[1,2,4]triazolo[3,4-b][1,3,4]thiadiazole] | 256 µg/mL (≈ 789 µM) | 78.2 ± 8.5 µg/mL (≈ 241 µM) | 0.87 ± 0.09 µM | > 256 µg/mL | 217 to 219 °C |  | improvement in the activity vs positive control ([4]; vs thiourea): around 27 times; Ki [5]: 1370 nM; type of inhibition ([5]; Lineweaver–Burk plot): competitive; IC50 [7, 8]: > 124 µg/mL |
| Clc1ccc(CSc2nn3c(-c4ccccc4)nnc3s2)cc1 [Compound 6g, 6-((4-chlorobenzyl)thio)-3-phenyl-[1,2,4]triazolo[3,4-b][1,3,4]thiadiazole] | 256 µg/mL (≈ 713 µM) | 75.4 ± 6.1 µg/mL (≈ 210 µM) | 1.68 ± 0.73 µM | 2 µg/mL (≈ 5.57 µM) | 218 to 220 °C |  | MFC/MBC [6]: 4 µg/mL (≈ 11.1 µM); urease inhibitory activity IC50 (µg/mL) ± SD ([7]; C. neoformans): 94.3 ± 5.9 µg/mL; IC50 [7, 8]: 93.3 µg/mL (≈ 260 µM) |
| CSc1nn2c(-c3ccccc3)nnc2s1 [Compound 6o, 6-(methylthio)-3-phenyl-[1,2,4]triazolo[3,4-b][1,3,4]thiadiazole] |  |  |  |  | 213 to 215 °C |  |  |
| NC(N)=S [Thiourea, reference compound] |  |  |  |  |  |  | IC50 [4, 9]: 22.5 ± 2.34 µM |
| Cc1cccc(CSc2nn3c(-c4ccccc4)nnc3s2)c1 [Compound 6n, 6-((3-methylbenzyl)thio)-3-phenyl-[1,2,4]triazolo[3,4-b][1,3,4]thiadiazole] |  |  |  |  |  |  | MIC [2]: 256 µg/mL (≈ 756 µM); urease inhibitory activity IC50 (µg/mL) ± SD [3]: 96.8 ± 4.7 µg/mL; IC50 [4, 9]: 1.23 ± 0.56 µM; MIC [6]: > 256 µg/mL; urease inhibitory activity IC50 (µg/mL) ± SD ([7]; C. neoformans): 112.3 ± 4.6 µg/mL |
| OC(Cn1cncn1)(Cn1cncn1)c1ccc(F)cc1F [Fluconazole, reference compound] |  |  |  | 2 µg/mL (≈ 6.53 µM) |  |  |  |
| Clc1cccc(CSc2nn3c(-c4ccccc4)nnc3s2)c1 [Compound 6f, 6-((3-chlorobenzyl)thio)-3-phenyl-[1,2,4]triazolo[3,4-b][1,3,4]thiadiazole] | 256 µg/mL (≈ 713 µM) | 73.2 ± 5.5 µg/mL (≈ 204 µM) | 1.25 ± 0.19 µM | 1 µg/mL (≈ 2.79 µM) | 216 to 218 °C | 87.5 ± 8.1 µg/mL (≈ 244 µM) | MFC/MBC [6]: 2 µg/mL (≈ 5.57 µM) |
| Brc1ccc(CSc2nn3c(-c4ccccc4)nnc3s2)cc1 [Compound 6k, 6-((4-bromobenzyl)thio)-3-phenyl-[1,2,4]triazolo[3,4-b][1,3,4]thiadiazole] |  |  |  |  |  |  | MIC [2]: 256 µg/mL (≈ 635 µM); urease inhibitory activity IC50 (µg/mL) ± SD [3]: 113.7 ± 4.6 µg/mL; IC50 [4, 9]: 1.53 ± 0.17 µM; MIC [6]: > 256 µg/mL; urease inhibitory activity IC50 (µg/mL) ± SD ([7]; C. neoformans): 118.7 ± 5.5 µg/mL |
| Brc1cccc(CSc2nn3c(-c4ccccc4)nnc3s2)c1 [Compound 6j, 6-((3-bromobenzyl)thio)-3-phenyl-[1,2,4]triazolo[3,4-b][1,3,4]thiadiazole] | 256 µg/mL (≈ 635 µM) | 112 ± 6.9 µg/mL (≈ 278 µM) | 1.05 ± 0.34 µM | > 256 µg/mL | 225 to 227 °C | 111 ± 4.8 µg/mL (≈ 276 µM) |  |
| CCNc1nnc(Cc2nc3ccccc3c(=O)n2Cc2ccc(F)cc2)s1 [E] |  |  |  |  |  |  | IC50 ([1]; urease): 1.88 ± 0.17 µg/mL |
| Cc1ccc(-n2c(C(O)c3ccccc3)n[nH]c2=S)cc1 (centres unmarked) [A] |  |  |  |  |  |  | IC50 ([1]; urease, read-out: IC50): 16700 ± 178 nM |
| O=[N+]([O-])c1ccc(CSc2nn3c(-c4ccccc4)nnc3s2)cc1 [Compound 6l, 6-((4-nitrobenzyl)thio)-3-phenyl-[1,2,4]triazolo[3,4-b][1,3,4]thiadiazole] |  |  |  |  |  |  | MIC [2]: 256 µg/mL (≈ 693 µM); urease inhibitory activity IC50 (µg/mL) ± SD [3]: 91.8 ± 7.0 µg/mL; IC50 [4, 9]: 2.22 ± 0.18 µM; MIC [6]: > 256 µg/mL; urease inhibitory activity IC50 (µg/mL) ± SD ([7]; C. neoformans): 113.6 ± 5.4 µg/mL |
| Cc1cccc(C)c1Nc1nnc(-c2ccc(Cl)cc2)s1 [D] |  |  |  |  |  |  | IC50 ([1]; urease, read-out: IC50): 214700 ± 160 nM |
| Cc1ncc([N+](=O)[O-])n1Cc1cn(Cc2ccc(F)cc2)nn1 [C] |  |  |  |  |  |  | IC50 ([1]; urease, read-out: IC50): 1980 ± 250 nM |
| Clc1ccc(CSc2nn3c(-c4ccccc4)nnc3s2)cc1Cl [Compound 6h, 6-((3,4-dichlorobenzyl)thio)-3-phenyl-[1,2,4]triazolo[3,4-b][1,3,4]thiadiazole] | 256 µg/mL (≈ 651 µM) | 74.5 ± 4.7 µg/mL (≈ 189 µM) | 1.41 ± 0.32 µM | 0.5 µg/mL (≈ 1.27 µM) | 215 to 217 °C | 83.7 ± 3.2 µg/mL (≈ 213 µM) | MFC/MBC [6]: 0.5 µg/mL (≈ 1.27 µM) |
| Clc1ccccc1CSc1nn2c(-c3ccccc3)nnc2s1 [Compound 6e, 6-((2-chlorobenzyl)thio)-3-phenyl-[1,2,4]triazolo[3,4-b][1,3,4]thiadiazole] | 256 µg/mL (≈ 713 µM) | 93.3 ± 5.2 µg/mL (≈ 260 µM) | 8.32 ± 1.21 µM | > 256 µg/mL | 224 to 226 °C | 102 ± 3.3 µg/mL (≈ 284 µM) | MIC (µg/mL) [6]: almost inactive |
| Brc1ccccc1CSc1nn2c(-c3ccccc3)nnc2s1 [Compound 6i, 6-((2-bromobenzyl)thio)-3-phenyl-[1,2,4]triazolo[3,4-b][1,3,4]thiadiazole] | 256 µg/mL (≈ 635 µM) | 109 ± 6.2 µg/mL (≈ 271 µM) | 1.59 ± 0.14 µM | > 256 µg/mL | 210 to 212 °C | 112 ± 6.7 µg/mL (≈ 278 µM) |  |
| Fc1ccc(CSc2nn3c(-c4ccccc4)nnc3s2)cc1 [Compound 6d, 6-((4-fluorobenzyl)thio)-3-phenyl-[1,2,4]triazolo[3,4-b][1,3,4]thiadiazole] | 256 µg/mL (≈ 748 µM) | 91 ± 6.4 µg/mL (≈ 266 µM) | 1.01 ± 0.13 µM | > 256 µg/mL | 199 to 201 °C | 118 ± 8.6 µg/mL (≈ 344 µM) |  |
| Fc1cccc(CSc2nn3c(-c4ccccc4)nnc3s2)c1 [Compound 6c, 6-((3-fluorobenzyl)thio)-3-phenyl-[1,2,4]triazolo[3,4-b][1,3,4]thiadiazole] | 256 µg/mL (≈ 748 µM) | 79.8 ± 3.5 µg/mL (≈ 233 µM) | 1.4 ± 0.29 µM | > 256 µg/mL | 216 to 218 °C | 117 ± 6.4 µg/mL (≈ 343 µM) |  |
| Fc1ccccc1CSc1nn2c(-c3ccccc3)nnc2s1 [Compound 6b, 6-((2-fluorobenzyl)thio)-3-phenyl-[1,2,4]triazolo[3,4-b][1,3,4]thiadiazole] | 256 µg/mL (≈ 748 µM) | 87.3 ± 4.9 µg/mL (≈ 255 µM) | 1.51 ± 0.21 µM | > 256 µg/mL | 190 to 192 °C | 111 ± 7.4 µg/mL (≈ 324 µM) |  |
| COc1ccc(NC(=O)NCc2cn(Cc3ccc(Cl)cc3Cl)nn2)cc1 [B] |  |  |  |  |  |  | IC50 ([1]; urease, read-out: IC50): 22810 ± 50 nM |
| Cc1ccccc1CSc1nn2c(-c3ccccc3)nnc2s1 [Compound 6m, 6-((2-methylbenzyl)thio)-3-phenyl-[1,2,4]triazolo[3,4-b][1,3,4]thiadiazole] |  |  |  |  |  |  | MIC [2]: 256 µg/mL (≈ 756 µM); urease inhibitory activity IC50 (µg/mL) ± SD [3]: 95.7 ± 6.6 µg/mL; IC50 [4, 9]: 1.6 ± 0.23 µM; MIC [6]: > 256 µg/mL; urease inhibitory activity IC50 (µg/mL) ± SD ([7]; C. neoformans): 110.9 ± 3.8 µg/mL |

From publication PMC10287669, “[1,2,4]triazolo[3,4-b][1,3,4]thiadiazole derivatives as new therapeutic candidates against urease positive microorganisms: design, synthesis, pharmacological evaluations, and in silico studies” (Scientific Reports, 2023)
